Reference: ChEMBL document CHEMBL1201862, “PubChem BioAssay data set” (2004)
Activity calls are given as the source filed them. For most assays here, no stated cut-off is given here; in the data, actives have a measured EC50 and inactives only a lower limit.

Tests used:
[1] = Luminescence Cell-Based Dose Retest to Confirm Inhibitors of Cancer Stem Cells. [Related pubchem assays (depositor defined):AID2717, AID2721]; format: functional; settings: Homo sapiens
[2] = target: T1, Replicative DNA helicase DnaB (Mycobacterium tuberculosis, UniProt P9WMR3); assay: DnaB intein splicing inhibitors, dose response, biochemical, cell-free fluorescence (AID 449749); format: functional
T1 sequence (P9WMR3 whole entry): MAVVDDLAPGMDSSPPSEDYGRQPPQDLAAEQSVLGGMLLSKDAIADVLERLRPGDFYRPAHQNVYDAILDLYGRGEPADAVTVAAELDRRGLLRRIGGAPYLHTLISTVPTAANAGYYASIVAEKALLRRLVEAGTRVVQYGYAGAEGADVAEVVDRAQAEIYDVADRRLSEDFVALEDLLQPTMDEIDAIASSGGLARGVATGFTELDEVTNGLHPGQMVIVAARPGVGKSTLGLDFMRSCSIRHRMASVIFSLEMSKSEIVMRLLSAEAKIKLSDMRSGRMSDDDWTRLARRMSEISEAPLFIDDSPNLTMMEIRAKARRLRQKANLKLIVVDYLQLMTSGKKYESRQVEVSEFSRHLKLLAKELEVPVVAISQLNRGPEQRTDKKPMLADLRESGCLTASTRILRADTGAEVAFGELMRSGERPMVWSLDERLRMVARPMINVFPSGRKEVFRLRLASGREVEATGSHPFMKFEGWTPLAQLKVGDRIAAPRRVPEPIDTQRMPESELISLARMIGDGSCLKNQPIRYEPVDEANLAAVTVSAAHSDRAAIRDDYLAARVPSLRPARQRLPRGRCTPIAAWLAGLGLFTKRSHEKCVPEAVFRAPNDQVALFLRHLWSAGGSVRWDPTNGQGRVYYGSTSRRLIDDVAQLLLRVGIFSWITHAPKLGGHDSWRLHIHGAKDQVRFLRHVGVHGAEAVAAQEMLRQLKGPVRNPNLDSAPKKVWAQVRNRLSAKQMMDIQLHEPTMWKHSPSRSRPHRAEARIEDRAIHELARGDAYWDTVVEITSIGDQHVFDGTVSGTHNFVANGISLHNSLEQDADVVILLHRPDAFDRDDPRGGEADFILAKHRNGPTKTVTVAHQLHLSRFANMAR

Protein RecA = target: T2, Protein RecA (Mycobacterium tuberculosis, UniProt P9WHJ3); assay: Fluorescence Cell-Free Homogeneous Dose Retest to Identify Inhibitors of RecA-Intein Splicing Activity. [Related pubchem assays (depositor defined):AID2097, AID2223, AID489010, AID492950]; format: functional
T2 sequence (P9WHJ3 whole entry): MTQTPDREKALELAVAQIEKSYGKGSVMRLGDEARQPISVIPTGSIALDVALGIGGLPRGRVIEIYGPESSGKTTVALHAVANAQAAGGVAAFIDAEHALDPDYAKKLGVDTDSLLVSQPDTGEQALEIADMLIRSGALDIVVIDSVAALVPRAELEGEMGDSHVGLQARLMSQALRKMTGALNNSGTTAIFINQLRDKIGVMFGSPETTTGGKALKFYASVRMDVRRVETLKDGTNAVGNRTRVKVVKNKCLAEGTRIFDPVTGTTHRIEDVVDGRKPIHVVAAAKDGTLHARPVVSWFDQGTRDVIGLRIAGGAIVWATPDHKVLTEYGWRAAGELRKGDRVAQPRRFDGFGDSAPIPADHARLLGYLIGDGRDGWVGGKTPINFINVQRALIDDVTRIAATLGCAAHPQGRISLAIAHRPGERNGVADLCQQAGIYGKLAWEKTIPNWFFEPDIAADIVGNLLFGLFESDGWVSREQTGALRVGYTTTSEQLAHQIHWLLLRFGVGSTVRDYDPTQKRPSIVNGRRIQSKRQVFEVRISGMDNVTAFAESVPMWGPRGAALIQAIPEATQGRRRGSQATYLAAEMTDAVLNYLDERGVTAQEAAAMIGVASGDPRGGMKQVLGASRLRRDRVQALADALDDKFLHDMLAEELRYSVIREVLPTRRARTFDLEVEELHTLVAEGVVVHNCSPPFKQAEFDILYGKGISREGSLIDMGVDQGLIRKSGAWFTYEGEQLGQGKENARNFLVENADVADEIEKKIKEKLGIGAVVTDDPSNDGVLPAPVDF

[3] = Luminescence Cell-Based Dose Confirmation HTS to Identify Activators of 5'UTR Stem-Loop Driven Alpha-Synuclein mRNA Translation in H4 Neuroglioblastoma Cells. [Related pubchem assays: 1829 (Project Summary), 1814 (Primary HTS)]; format: functional
[4] = Luminescence Cell-Based Dose Response HTS to Identify Activators of Luciferase Translation or Activity in H4 […] Cells. [Related pubchem assays: 1829 (Project Summary), 1814 (Primary HTS)]; format: functional
H4 = assay: Luminescence Cell-Based Dose Response HTS to Identify Activators of 5'UTR Stem-Loop Driven Prion Protein mRNA Translation in H4 Neuroglioblastoma Cells. [Related pubchem assays: 1829 (Project Summary), 1814 (Primary HTS)]; format: functional; settings: Homo sapiens
[5] = luciferase reporter signal suppression in cells – H4 neuroglioma cells, luminescence, dose response (AID 1990); format: functional, cell-based
[6] = Luminescence Cell-Based Dose Response HTS to Identify Inhibitors of 5'UTR Stem-Loop Driven Prion Protein mRNA Translation in H4 Neuroglioblastoma Cells. [Related pubchem assays: 1827 (Project Summary), 1813 (Primary HTS)]; format: functional
[7] = alpha-synuclein stem-loop luciferase translation blockers – H4 neuroglioma cells, luminescence, confirmation (AID 1988); format: functional, cell-based
H9c2 = assay: cells; format: functional, cell-based; settings: Rattus norvegicus, H9c2, Myocardium
[8] = NIH-3T3 fibroblast cytotoxicity, dose response, cytotoxicity control, cell-based, fluorescence, Alamar Blue, secondary assay (AID 2327); format: functional;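 further: NIH-3T3 mouse fibroblasts cultured with fluconazole at 8 µg/mL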
[9] = fluconazole-exposed Candida albicans growth modulators – fluorescence, retest, confirmation (AID 2467); format: functional, cell-based
[10] = Trypanosoma cruzi growth suppression in host cells – NIH3T3 host cells, beta-gal luminescence, confirmation (AID 2044); format: functional, cell-based;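 further: intracellular parasites grown in NIH/3T3 mouse fibroblasts as host cells; luminescent beta-galactosidase reporter signal from transgenic T. cruzi replicating inside host cells; inhibitors lower the luminescence signal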
[11] = NIH3T3 cell viability loss – ATP luminescence, mouse fibroblasts, counter-screen, dose response (AID 2010); format: functional, cell-based;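 further: cells exposed to compound for about 90 hours before reading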
[12] = microbe, parasite or virus in culture; format: functional; settings: Mycobacterium tuberculosis
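Wherever IC50 is given: confirmatory concentration-response retest of ultra-high-throughput screening hits for modulation of myocardial damage; cell death induced by hydrogen peroxide oxidative stress; compound pretreatment for 60 min then peroxide exposure for 2 h; potency is for protecting the cells against peroxide damage rather than for killing them.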

## Cc1cc(NC(=O)/C=C/c2ccc(Cl)cc2)no1
[1]
  AC50: 22.8 µM (active)

## Cc1ccc2c(c1)c1c(n2CC(O)CN2CCCCCC2)CCCC1 (configuration not stated)
[2]
  AC50: > 380 µM (inactive)
Protein RecA
  EC50: > 380 µM (inactive)

## Cc1ccccc1Nc1nc(N)nc(COC(=O)c2ccccc2)n1
[3]
  EC50: 40.5 µM (active)
[4]
  EC50: 25.1 µM (active)
H4
  EC50: 25.7 µM (active)

## NC(=O)[C@H](Cc1cc2ccccc2s1)NC(=O)[C@@H]1CC2(CC(c3cccc(NC(=O)[C@@H]4CCC(=O)N4)c3)=NO2)CN1C(=O)/C=C/c1c(F)cccc1Cl (some centres not stated)
[2]
  AC50: 20 µM (active)
Protein RecA
  EC50: 168 µM (active)

## Cc1nn(Cc2ccccc2Cl)c(C)c1NC(=O)CCCn1nc(C)c([N+](=O)[O-])c1C
[5]
  EC50: 21 µM (active)
[6]
  EC50: > 120 µM (not active)
[7]
  EC50: > 120 µM (not active)

## O=C(NCCCNC(=O)c1nc[nH]c1C(=O)Nc1cccc(Cl)c1)c1nc[nH]c1C(=O)Nc1cccc(Cl)c1
[1]
  AC50: 3.78 µM (active)
H9c2
  IC50: > 79 µM (inactive)

## CC1CCCC2(C1)N=C(S)c1c(sc3c1CCCC3)N2 (configuration not stated)
[3]
  EC50: > 120 µM (not active)
[4]
  EC50: > 120 µM (not active)
H4
  EC50: > 120 µM (not active)

## NC(=O)CC(NC(=O)Cc1ccc(Br)cc1)c1ccc(NC2CC3CCC2C3)c([N+](=O)[O-])c1 (configuration not stated)
[1]
  AC50: 6.22 µM (active)

## Cc1nn(-c2ccccc2)c(N2CCCC2)c1/C=N/NC(=O)c1ccccc1O
[8]
  EC50: > 150 µM (inactive)
[5]
  EC50: 29.2 µM (active)
[6]
  EC50: > 120 µM (not active)
[7]
  EC50: 27.3 µM (active)
[9]
  EC50: > 38 µM (not active)

## COc1ccccc1-n1c2nc3ccccc3nc2c2c(=O)n(-c3cc(C)cc(C)c3)cnc21
[5]
  EC50: > 120 µM (not active)
[6]
  EC50: 0.528 µM (active)
[7]
  EC50: > 120 µM (not active)

## COc1ccc(S[C@@H](CCN2CC[C@H](NC(=O)OCc3ccccc3)CCC2=O)c2ccccc2)cc1
[1]
  AC50: 3.09 µM (active)

## CN1C2=CC=CC=CC2=[N+](C)C12C([N+](=O)[O-])=CC(=[N+]([O-])[O-])C=C2[N+](=O)[O-] (configuration not stated)
[3]
  EC50: > 120 µM (not active)
[4]
  EC50: > 120 µM (not active)
H4
  EC50: > 120 µM (not active)

## O=C(CSCc1cc(O)n[nH]1)Nc1ccc(F)cc1
[2]
  AC50: 4.04 µM (active)
Protein RecA
  EC50: 1.74 µM (active)

## Cc1ccc(-c2ccc(NC(=O)C3C4C=CC(C4)C3C(=O)O)cc2)o1 (configuration not stated)
[3]
  EC50: 2.07 µM (active)
[4]
  EC50: 33.5 µM (active)
H4
  EC50: > 120 µM (not active)

## O=C(C1=C[C@@H](c2csc3ccccc23)C[C@@H](OCc2ccc(CO)cc2)O1)N1CCN(Cc2ccc3c(c2)OCO3)CC1
[5]
  EC50: 11.3 µM (active)
[6]
  EC50: > 120 µM (not active)
[7]
  EC50: 9.17 µM (active)

## CCOC(=O)C(=O)NNc1ccc(F)cc1
[1]
  AC50: 0.837 µM (active)

## OCc1ccc[n+](/C(C([S-])=Nc2ccc(SC(F)F)cc2)=C(/O)c2ccc(Cl)s2)c1
[3]
  EC50: 13.4 µM (active)
[4]
  EC50: 14.2 µM (inconclusive)
H4
  EC50: 18.2 µM (active)

## Cc1nc(S(=O)(=O)N(C)Cc2ccccc2)c(C#N)c(C)c1Cl
[3]
  EC50: 5.83 µM (active)
[4]
  EC50: 60.4 µM (active)
H4
  EC50: > 120 µM (not active)

## O=C(NNC(=O)c1ccc([N+](=O)[O-])o1)c1ccccc1
[10]
  EC50: 0.13 µM (active)
[11]
  EC50: > 60 µM (not active)
[2]
  AC50: 23.5 µM (active)
Protein RecA
  EC50: 13.5 µM (active)

## Cc1ccc(CNc2cnn(C34CC5CC(CC(C5)C3)C4)c(=O)c2Cl)cc1
[1]
  AC50: 1.18 µM (active)

## CC(/C=N/n1c(S)nnc1C1CCCCC1)=C\c1ccccc1
[12]
  CC50: > 40 µM (active)
[1]
  AC50: 4.26 µM (active)

## COc1ccc(OC)c(NC(=O)CN2C(=O)CSc3ccc(S(=O)(=O)N4CCCC4)cc32)c1
[5]
  EC50: > 120 µM (not active)
[6]
  EC50: > 120 µM (not active)
[7]
  EC50: > 120 µM (not active)

## Brc1ccc(C2=NC(Cc3ccccc3)CO2)cc1 (configuration not stated)
[3]
  EC50: 3.58 µM (active)
[4]
  EC50: 3.81 µM (active)
H4
  EC50: 7.48 µM (active)

## N#Cc1ccc(-c2ccc(F)cc2)nc1Oc1ccc(F)cc1
[5]
  EC50: > 120 µM (not active)
[6]
  EC50: 22.6 µM (active)
[7]
  EC50: > 120 µM (not active)

## CCOc1ccccc1N(C(=O)Nc1ccc(Cl)cc1)C1=NCCS1
[1]
  AC50: 5.46 µM (active)

## O=C(COc1ccc(Oc2ccccc2)cc1)NCc1cn2ccccc2n1
[5]
  EC50: 12.7 µM (active)
[6]
  EC50: 14.8 µM (active)
[7]
  EC50: 8.5 µM (active)

## COc1ccc(Cl)cc1N(CC(=O)Nc1ccccc1C(=O)NCc1ccco1)S(C)(=O)=O
[5]
  EC50: > 120 µM (not active)
[6]
  EC50: > 120 µM (not active)
[7]
  EC50: > 120 µM (not active)

## Cn1c(N)c(-c2nc3cccnc3n2C)sc1=S
[3]
  EC50: > 120 µM (not active)
[4]
  EC50: 9.72 µM (active)
H4
  EC50: > 120 µM (not active)

## COc1cc(C(=O)CSc2nnc(-c3ccc(O)cc3)n2CC2CCCO2)ccc1NC(C)=O (configuration not stated)
[2]
  AC50: > 380 µM (inactive)
Protein RecA
  EC50: > 380 µM (inactive)

## COc1ccc(/C=C2/C(=O)N(c3ccccc3)N=C2C)cc1OC
[2]
  AC50: 3.78 µM (active)
Protein RecA
  EC50: 1.46 µM (active)

## O=C(NCc1nnnn1-c1ccc(F)cc1)c1ccc([N+](=O)[O-])o1
[3]
  EC50: 8.58 µM (active)
[4]
  EC50: > 60 µM (not active)
H4
  EC50: 29 µM (active)
[12]
  CC50: 19.3 µM (active)

## COc1ccc2oc(=O)c(-c3nc4ccccc4o3)cc2c1
[3]
  EC50: 3.5 µM (active)
[4]
  EC50: 17.2 µM (active)
H4
  EC50: 24.1 µM (active)

## CC(=O)N(CCC(Cc1ccccc1)c1ccc2c(c1)OCO2)Cc1ccccc1F (configuration not stated)
[2]
  AC50: 3.39 µM (active)
Protein RecA
  EC50: 5.78 µM (active)

## O=C(CN1C(=O)S/C(=C\c2ccc(O)cc2)C1=O)c1ccccc1
[3]
  EC50: 6.38 µM (active)
[4]
  EC50: 6.77 µM (active)
H4
  EC50: 26 µM (active)

## O=C(C1CCN(c2nc(-c3ccccc3)nc3c2CCC3)CC1)N1CCCC1
[5]
  EC50: > 120 µM (not active)
[6]
  EC50: 24.7 µM (active)
[7]
  EC50: 16.7 µM (active)

## O=C(O)c1cc(NN=C2CCN(Cc3ccccc3)CC2)ccc1Cl
[3]
  EC50: > 120 µM (not active)
[4]
  EC50: 22.9 µM (active)
H4
  EC50: 18.7 µM (active)
